Results published in the NIST ThermoML archive (doi:10.1021/je200721d).
Numbers after ± are expanded uncertainties.

Test: xn = mol fraction of the nth substance listed
Conditions: Liquid, Vibrating tube method

CCCCCCCC [octane] + CCCCCC
Conditions | mass density [kg/m3]
342.99 K, 19000 kPa, x2 = 0.1654 | 676.86 ± 0.42
342.99 K, 20000 kPa, x2 = 0.1654 | 677.79 ± 0.43
342.99 K, 21000 kPa, x2 = 0.1654 | 678.7 ± 0.44
342.99 K, 22000 kPa, x2 = 0.1654 | 679.59 ± 0.45
342.99 K, 23000 kPa, x2 = 0.1654 | 680.47 ± 0.46
342.99 K, 24000 kPa, x2 = 0.1654 | 681.32 ± 0.47
342.99 K, 25000 kPa, x2 = 0.1654 | 682.14 ± 0.48
343 K, 1000 kPa, x2 = 0.7995 | 627.89 ± 0.28
343 K, 2000 kPa, x2 = 0.7995 | 629.27 ± 0.29
343 K, 3000 kPa, x2 = 0.7995 | 630.64 ± 0.3
343 K, 4000 kPa, x2 = 0.7995 | 632.01 ± 0.3
343 K, 5000 kPa, x2 = 0.7995 | 633.35 ± 0.31
343 K, 6000 kPa, x2 = 0.7995 | 634.69 ± 0.32
343 K, 7000 kPa, x2 = 0.7995 | 636.02 ± 0.33
343 K, 8000 kPa, x2 = 0.7995 | 637.32 ± 0.34
343 K, 9000 kPa, x2 = 0.7995 | 638.61 ± 0.35
343 K, 10000 kPa, x2 = 0.7995 | 639.87 ± 0.36
343 K, 11000 kPa, x2 = 0.7995 | 641.1 ± 0.37
343 K, 12000 kPa, x2 = 0.7995 | 642.32 ± 0.38
343 K, 13000 kPa, x2 = 0.7995 | 643.52 ± 0.39
343 K, 14000 kPa, x2 = 0.7995 | 644.7 ± 0.4
343 K, 15000 kPa, x2 = 0.7995 | 645.87 ± 0.41
343 K, 16000 kPa, x2 = 0.7995 | 647.01 ± 0.42
343 K, 17000 kPa, x2 = 0.7995 | 648.12 ± 0.43
343 K, 18000 kPa, x2 = 0.7995 | 649.21 ± 0.44
343 K, 19000 kPa, x2 = 0.7995 | 650.28 ± 0.45
343 K, 20000 kPa, x2 = 0.7995 | 651.33 ± 0.46
343 K, 21000 kPa, x2 = 0.7995 | 652.33 ± 0.47
343 K, 22000 kPa, x2 = 0.7995 | 653.33 ± 0.48
343 K, 23000 kPa, x2 = 0.7995 | 654.3 ± 0.49
343 K, 24000 kPa, x2 = 0.7995 | 655.24 ± 0.5
343 K, 25000 kPa, x2 = 0.7995 | 656.16 ± 0.52
352.79 K, 1000 kPa, x2 = 0.5749 | 631.4 ± 0.28
352.79 K, 2000 kPa, x2 = 0.5749 | 632.83 ± 0.28
352.79 K, 3000 kPa, x2 = 0.5749 | 634.2 ± 0.29
352.79 K, 4000 kPa, x2 = 0.5749 | 635.57 ± 0.3
352.79 K, 5000 kPa, x2 = 0.5749 | 636.95 ± 0.31
352.79 K, 6000 kPa, x2 = 0.5749 | 638.3 ± 0.32
352.79 K, 7000 kPa, x2 = 0.5749 | 639.63 ± 0.33
352.79 K, 8000 kPa, x2 = 0.5749 | 640.97 ± 0.34
352.79 K, 9000 kPa, x2 = 0.5749 | 642.26 ± 0.35
352.79 K, 10000 kPa, x2 = 0.5749 | 643.53 ± 0.36
352.79 K, 11000 kPa, x2 = 0.5749 | 644.82 ± 0.37
352.79 K, 12000 kPa, x2 = 0.5749 | 646.04 ± 0.38
352.79 K, 13000 kPa, x2 = 0.5749 | 647.27 ± 0.39
352.79 K, 14000 kPa, x2 = 0.5749 | 648.46 ± 0.4
352.79 K, 15000 kPa, x2 = 0.5749 | 649.66 ± 0.41
352.79 K, 16000 kPa, x2 = 0.5749 | 650.79 ± 0.42
352.79 K, 17000 kPa, x2 = 0.5749 | 651.95 ± 0.43
352.79 K, 18000 kPa, x2 = 0.5749 | 653.02 ± 0.44
352.79 K, 19000 kPa, x2 = 0.5749 | 654.11 ± 0.45
352.79 K, 20000 kPa, x2 = 0.5749 | 655.18 ± 0.45
352.79 K, 21000 kPa, x2 = 0.5749 | 656.24 ± 0.46
352.79 K, 22000 kPa, x2 = 0.5749 | 657.22 ± 0.47
352.79 K, 23000 kPa, x2 = 0.5749 | 658.23 ± 0.48
352.79 K, 24000 kPa, x2 = 0.5749 | 659.22 ± 0.5
352.79 K, 25000 kPa, x2 = 0.5749 | 660.15 ± 0.51
352.85 K, 1000 kPa, x2 = 0.2199 | 646.75 ± 0.27
352.85 K, 2000 kPa, x2 = 0.2199 | 648.04 ± 0.28
352.85 K, 3000 kPa, x2 = 0.2199 | 649.32 ± 0.28
352.85 K, 4000 kPa, x2 = 0.2199 | 650.6 ± 0.29
352.85 K, 5000 kPa, x2 = 0.2199 | 651.87 ± 0.3
352.85 K, 6000 kPa, x2 = 0.2199 | 653.11 ± 0.31
352.85 K, 7000 kPa, x2 = 0.2199 | 654.35 ± 0.32
352.85 K, 8000 kPa, x2 = 0.2199 | 655.57 ± 0.33
352.85 K, 9000 kPa, x2 = 0.2199 | 656.79 ± 0.34
352.85 K, 10000 kPa, x2 = 0.2199 | 657.97 ± 0.35
352.85 K, 11000 kPa, x2 = 0.2199 | 659.16 ± 0.35
352.85 K, 12000 kPa, x2 = 0.2199 | 660.32 ± 0.36
352.85 K, 13000 kPa, x2 = 0.2199 | 661.45 ± 0.37
352.85 K, 14000 kPa, x2 = 0.2199 | 662.57 ± 0.38
352.85 K, 15000 kPa, x2 = 0.2199 | 663.67 ± 0.39
352.85 K, 16000 kPa, x2 = 0.2199 | 664.74 ± 0.4
352.85 K, 17000 kPa, x2 = 0.2199 | 665.8 ± 0.41
352.85 K, 18000 kPa, x2 = 0.2199 | 666.83 ± 0.42
352.85 K, 19000 kPa, x2 = 0.2199 | 667.85 ± 0.43
352.85 K, 20000 kPa, x2 = 0.2199 | 668.84 ± 0.44
352.85 K, 21000 kPa, x2 = 0.2199 | 669.8 ± 0.45
352.85 K, 22000 kPa, x2 = 0.2199 | 670.75 ± 0.46
352.85 K, 23000 kPa, x2 = 0.2199 | 671.68 ± 0.47
352.85 K, 24000 kPa, x2 = 0.2199 | 672.59 ± 0.48
352.85 K, 25000 kPa, x2 = 0.2199 | 673.48 ± 0.49
352.91 K, 1000 kPa, x2 = 0.1654 | 648.87 ± 0.27
352.91 K, 1000 kPa, x2 = 0.9308 | 609.77 ± 0.28
352.91 K, 2000 kPa, x2 = 0.1654 | 650.15 ± 0.28
352.91 K, 2000 kPa, x2 = 0.9308 | 611.36 ± 0.29
352.91 K, 3000 kPa, x2 = 0.1654 | 651.43 ± 0.28
352.91 K, 3000 kPa, x2 = 0.9308 | 612.95 ± 0.3
352.91 K, 4000 kPa, x2 = 0.1654 | 652.68 ± 0.29
352.91 K, 4000 kPa, x2 = 0.9308 | 614.51 ± 0.31
352.91 K, 5000 kPa, x2 = 0.1654 | 653.95 ± 0.3
352.91 K, 5000 kPa, x2 = 0.9308 | 616.06 ± 0.32
352.91 K, 6000 kPa, x2 = 0.1654 | 655.19 ± 0.31
352.91 K, 6000 kPa, x2 = 0.9308 | 617.57 ± 0.33
